Reference: patent publication US10221168B1, “Small-compound enhancers for functional O-mannosylation of alpha-dystroglycan, and uses thereof” (priority 2015, dated 2019)

The compounds below were run on FOG of α-DG on the cell surfaces (assay: Cell-based HTS/HCS assay, IIH6 antibody as probe (EC1.5)). Conditions: concentration of the compound required to enhance the FOG of α-DG by 50% over the controls; cell-based assays in vitro.
Source text: Protein glycosylation is a multiple-step process that requires a large number of proteins in the secretory pathway of the cells. Thus we chose cell-based assay because our goal is to identify enhancer the FOG of α-DG on the cell surfaces. The assay system is HTS/HCS friendly and can adapt to various cell lines including myotubes as well as various readout methods including AlphaScreen, fluorescence density and HCS/fluorescence imaging. The standard operation protocol (SOP) for adhesion cells is described below and the FIG. 1 illustrates the assay process using myoblasts as the controls and screening cells and the IIH6 antibody as the probe. Other adhesion cells such CHO (Chinese hamster ovary) cell line can be implemented into this assay by simply removing the differentiation step.
Cell cultures: All cells are cultured at 37° C., 5% CO2, in appropriate media (F-12 for epithelial cells and DMEM for myoblasts) supplement with 10-20% fetal calf serum (FCS) and 1% antibiotics. […] The cells will be detached with trypsin EDTA and suspended in the cell culture media. The cells will be counted and seeded into the multiple-well plates as desired. Myotubes formation: When the myoblasts reach confluence, change the growth media to differential media (DEME with 2% horse serum) and incubate for 4-5 days.
The cells were fixed, permeablized, and then blocked with 10% BSA in PBS for 1 hour. […] After washing the cells with PBS for 2 times, the DAPI was used to stain the cells for 15 mins and wash 3 times with PBS. The images were captured with an inverted Olympus fluorescent microscope. For small compound localization experiment, the cells are incubated with the biotin conjugated compounds and then the cells were washed and incubated with streptavidin-Dye and then images will be captured to see the location of the compound-target-protein.
H, EC1.5<5 μM; M, EC1.5-20 μM; L, EC1.5 20-50 μM; VL, EC1.5>50 μM.
In the case of CCC(c1nnnn1Cc1cccs1)N1CCN(c2nc3ccc(C(=O)OC)cc3s2)CC1 (centres unmarked) [Compound 31, methyl 2-(4-(1-(1-(thiophen-2-ylmethyl)-1H-tetrazol-5-yl)propyl)piperazin-1-yl)benzothiazole-6-carboxylate], the “Activity (EC1.5)” value is reported as “L (EC1.5 20-50 μM)”.
CCC(c1nnnn1Cc1cccs1)N1CCN(c2nc3ccc(C(=O)O)cc3s2)CC1 (centres unmarked) [Compound 32, 2-(4-(1-(1-(thiophen-2-ylmethyl)-1H-tetrazol-5-yl)propyl)piperazin-1-yl)benzothiazole-6-carboxylic acid] was tested, and the “Activity (EC1.5)” value was “L (EC1.5 20-50 μM)”.
With O=C(c1nnnn1Cc1cccs1)N1CCN(c2nc3cccc(F)c3s2)CC1 [Compound 33, (4-(7-fluorobenzothiazol-2-yl)piperazin-1-yl)(1-(thiophen-2-ylmethyl)-1H-tetrazol-5-yl)methanone] the “Activity (EC1.5)” value was “L (EC1.5 20-50 μM)”.
With CCC(c1nnnn1Cc1cccs1)N1CCN(c2nc3cccc(Br)c3s2)CC1 (centres unmarked) [Compound 34, 7-bromo-2-(4-(1-(1-(thiophen-2-ylmethyl)-1H-tetrazol-5-yl)propyl)piperazin-1-yl)benzothiazole] the “Activity (EC1.5)” value was “L (EC1.5 20-50 μM)”.
In the case of CCC(c1nnnn1Cc1cccs1)N1CCN(c2nc3cccc(C(=O)OC)c3s2)CC1 (centres unmarked) [Compound 35, Methyl 2-(4-(1-(1-(thiophen-2-ylmethyl)-1H-tetrazol-5-yl)propyl)piperazin-1-yl)benzothiazole-7-carboxylate], the “Activity (EC1.5)” value is reported as “L (EC1.5 20-50 μM)”.
CCC(c1nnnn1Cc1cccs1)N1CCN(c2nc3cccc(C(=O)O)c3s2)CC1 (centres unmarked) [Compound 36, 2-(4-(1-(1-(thiophen-2-ylmethyl)-1H-tetrazol-5-yl)propyl)piperazin-1-yl)benzothiazole-7-carboxylic acid] was tested, and the “Activity (EC1.5)” value was “L (EC1.5 20-50 μM)”.
In the case of CCC(c1nnnn1Cc1cccs1)N1CCN(c2nc3cccc(O)c3s2)CC1 (centres unmarked) [Compound 37, 7-hydroxyl-2-(4-(1-(1-(thiophen-2-ylmethyl)-1H-tetrazol-5-yl)propyl)piperazin-1-yl)benzothiazole], the “Activity (EC1.5)” value is reported as “L (EC1.5 20-50 μM)”.
In the case of CCC(C(=O)NCc1cccs1)c1ccc(-c2nc3ccccc3s2)cc1 (centres unmarked) [Compound 38, 2-(4-(benzothiazol-2yl)phenyl)-N-(thiophen-2-ylmethyl)butanamide], the “Activity (EC1.5)” value is reported as “M (EC1.5-20 μM)”.
For CCC(C(=S)NCc1cccs1)c1ccc(-c2nc3ccccc3s2)cc1 (centres unmarked) [Compound 39, 2-(4-(benzothiazol-2-yl)phenyl)-N-(thiophen-2-ylmethyl)butanethioamide], the “Activity (EC1.5)” value was “M (EC1.5-20 μM)”.
For CCC(c1ccc(-c2nc3ccccc3s2)cc1)c1nnnn1Cc1cccs1 (centres unmarked) [Compound 40, 2-(4-(1-(1-(thiophen-2-ylmethyl)-1H-tetrazol-5-yl)propyl)phenyl)benzothiazole], the “Activity (EC1.5)” value was “M (EC1.5-20 μM)”.
For CCC(c1nnnn1CCc1cccs1)N1CCN(c2nc3cccc(F)c3s2)CC1 (centres unmarked) [Compound 41, 7-fluoro-2-(4-(1-(1-(2-(thiophen-2-yl)ethyl)-1H-tetrazol-5-yl)propyl)piperazin-1-yl)benzothiazole], the “Activity (EC1.5)” value was “L (EC1.5 20-50 μM)”.
With CCC(c1nnnn1Cc1cncs1)N1CCN(c2nc3cccc(F)c3s2)CC1 (centres unmarked) [Compound 42, 7-fluoro-2-(4-(1-(1-(thiazol-5-ylmethyl)-1H-tetrazol-5-yl)propyl)piperazin-1-yl)benzothiazole] the “Activity (EC1.5)” value was “L (EC1.5 20-50 μM)”.
For CCC(c1nnnn1Cc1cccs1)N1CCN(Cc2nc3ccccc3s2)CC1 (centres unmarked) [Compound 43, 2-((4-(1-(1-(thiophen-2-ylmethyl)-1H-tetrazol-5-yl)propyl)piperazin-1-yl)methyl)benzothiazole], the “Activity (EC1.5)” value was “L (EC1.5 20-50 μM)”.
CCC(c1nnnn1Cc1cccs1)N1CCN(c2nc3c(F)cc(F)cc3s2)CC1 (centres unmarked) [Compound 44, 4,6-difluoro-2-(4-(1-(1-(thiophen-2-ylmethyl)-1H-tetrazol-5-yl)propyl)piperazin-1-yl)benzothiazole] was tested, and the “Activity (EC1.5)” value was “M (EC1.5-20 μM)”.
With CCC(c1nnnn1Cc1cccs1)N1CCN(c2nc3cc([N+](=O)[O-])cc(F)c3s2)CC1 (centres unmarked) [Compound 45, 7-fluoro-5-nitro-2-(4-(1-(1-(thiophen-2-ylmethyl)-1H-tetrazol-5-yl)propyl)piperazin-1-yl)benzothiazole] the “Activity (EC1.5)” value was “L (EC1.5 20-50 μM)”.
For CCC(c1nnnn1Cc1cccs1)N1CCN(c2nc3c(F)c(N)ccc3s2)CC1 (centres unmarked) [Compound 47, 5-amino-4-fluoro-2-(4-(1-(1-(thiophen-2-ylmethyl)-1H-tetrazol-5-yl)propyl)piperazin-1-yl)benzothiazole], the “Activity (EC1.5)” value was “H (EC1.5<5 μM)”.
In the case of CCC(c1nnnn1Cc1cccs1)N1CCN(c2nc3c(F)c(N)cc(F)c3s2)CC1 (centres unmarked) [Compound 48, 5-amino-4,7-difluoro-2-(4-(1-(1-(thiophen-2-ylmethyl)-1H-tetrazol-5-yl)propyl)piperazin-1-yl)benzothiazole], the “Activity (EC1.5)” value is reported as “H (EC1.5<5 μM)”.
For CCC(c1nnnn1Cc1cccs1)N1CCN(c2nc3ccc(N)c(F)c3s2)CC1 (centres unmarked) [Compound 49, 6-amino-7-fluoro-2-(4-(1-(1-(thiophen-2-ylmethyl)-1H-tetrazol-5-yl)propyl)piperazin-1-yl)benzothiazole], the “Activity (EC1.5)” value was “H (EC1.5<5 μM)”.
CCC(c1nnnn1Cc1cccs1)N1CCN(c2nc3c(F)cc(N)cc3s2)CC1 (centres unmarked) [Compound 50, 6-amino-4-fluoro-2-(4-(1-(1-(thiophen-2-ylmethyl)-1H-tetrazol-5-yl)propyl)piperazin-1-yl)benzothiazole] was tested, and the “Activity (EC1.5)” value was “H (EC1.5<5 μM)”.
For CCC(c1nnnn1Cc1cccs1)N1CCN(c2nc3c(F)cc(N)c(F)c3s2)CC1 (centres unmarked) [Compound 51, 6-amino-4,7-difluoro-2-(4-(1-(1-(thiophen-2-ylmethyl)-1H-tetrazol-5-yl)propyl)piperazin-1-yl)benzothiazole], the “Activity (EC1.5)” value was “H (EC1.5<5 μM)”.
With CCC(c1nnnn1Cc1cccs1)N1CCN(c2nc3c(F)c(N)c(N)c(F)c3s2)CC1 (centres unmarked) [Compound 52, 5,6-diamino-4,7-difluoro-2-(4-(1-(1-(thiophen-2-ylmethyl)-1H-tetrazol-5-yl)propyl)piperazin-1-yl)benzothiazole] the “Activity (EC1.5)” value was “H (EC1.5<5 μM)”.
In the case of CCC(c1nnnn1CCc1cccs1)N1CCN(c2nc3cc(N)c(N)cc3s2)CC1 (centres unmarked) [Compound 53, 5,6-diamino-2-(4-(1-(1-(thiophen-2-ylethyl)-1H-tetrazol-5-yl)propyl)piperazin-1-yl)benzothiazole], the “Activity (EC1.5)” value is reported as “H (EC1.5<5 μM)”.
In the case of CCC(c1nnnn1Cc1cccs1)N1CCN(c2nc3cc(N)c(N)cc3s2)CC1 (centres unmarked) [Compound 54, 5,6-diamino-2-(4-(1-(1-(thiophen-2-ylmethyl)-1H-tetrazol-5-yl)propyl)piperazin-1-yl)benzothiazole], the “Activity (EC1.5)” value is reported as “H (EC1.5<5 μM)”.
For CCC(c1nnnn1CCc1cccs1)N1CCN(c2nc3cc(N)cc(F)c3s2)CC1 (centres unmarked) [Compound 55, 5-amino-7-fluoro-2-(4-(1-(1-(thiophen-2-ylethyl)-1H-tetrazol-5-yl)propyl)piperazin-1-yl)benzothiazole], the “Activity (EC1.5)” value was “H (EC1.5<5 μM)”.
For CCC(c1nnnn1Cc1ccc(C)s1)N1CCN(c2nc3cc(N)cc(F)c3s2)CC1 (centres unmarked) [Compound 56, 5-amino-7-fluoro-2-(4-(1-(1-(5-methyl-thiophen-2-ylmethyl)-1H-tetrazol-5-yl)propyl)piperazin-1-yl)benzothiazole], the “Activity (EC1.5)” value was “H (EC1.5<5 μM)”.
For CCC(c1nnnn1Cc1ccc(F)s1)N1CCN(c2nc3cc(N)cc(F)c3s2)CC1 (centres unmarked) [Compound 57, 5-amino-7-fluoro-2-(4-(1-(1-(5-fluoro-thiophen-2-ylmethyl)-1H-tetrazol-5-yl)propyl)piperazin-1-yl)benzothiazole], the “Activity (EC1.5)” value was “H (EC1.5<5 μM)”.
With CCC(c1nnnn1Cc1ccc([N+](=O)[O-])s1)N1CCN(c2nc3cc(N)cc(F)c3s2)CC1 (centres unmarked) [Compound 58, 5-amino-7-fluoro-2-(4-(1-(1-(5-nitro-thiophen-2-ylmethyl)-1H-tetrazol-5-yl)propyl)piperazin-1-yl)benzothiazole] the “Activity (EC1.5)” value was “H (EC1.5<5 μM)”.
For CCC(c1nnnn1Cc1ccc(F)s1)N1CCN(c2nc3cc(N)cc(F)c3s2)C(C)C1 (centres unmarked) [Compound 59, 5-amino-7-fluoro-2-(4-(1-(1-(5-fluoro-thiophen-2-ylmethyl)-1H-tetrazol-5-yl)propyl)-2-methyl-piperazin-1-yl)benzothiazole], the “Activity (EC1.5)” value was “H (EC1.5<5 μM)”.
With CCC(c1nnnn1CCc1ccc(F)s1)N1CCN(c2nc3cc(N)cc(F)c3s2)C(C)C1 (centres unmarked) [Compound 60, 5-amino-7-fluoro-2-(4-(1-(1-(5-fluoro-thiophen-2-ylethyl)-1H-tetrazol-5-yl)propyl)-2-methyl-piperazin-1-yl)benzothiazole] the “Activity (EC1.5)” value was “H (EC1.5<5 μM)”.
